Experimental data as given in a melting point compilation (Tetko et al.; mined from patent text by program, amines drawn as free bases though some values may be those of a salt).

| SMILES | melting point |
| --- | --- |
| CC1(C)OC(=S)Nc2ccc(-c3cc(Br)cc(OC(F)(F)F)c3)cc21 | 192 to 193 °C |
| CC(C)(C)OC(=O)NCCc1ccc(N)cc1 | 71 to 73 °C |
| CCCCc1nc2c(c(C)c(C)n3nnnc23)n1CC(C)(C)NC(=O)c1ccccc1 | 201 to 204 °C |
| Cc1nc(NC(=O)c2cnn3c(C(F)(F)F)cc(-c4ccc(Cl)c(Cl)c4)nc23)sc1S(N)(=O)=O | 307 °C |
| O=C(Nc1nccs1)c1cn(CC2CC2)c2cc(Cl)ccc12 | 185 to 187 °C |
| Nc1cc(C(=O)O)ccc1-c1nnc(-c2ccc(C(F)(F)F)cc2)o1 | > 300 °C |
| CC(C)(Sc1cc(C(C)(C)C)c(O)c(C(C)(C)C)c1)Sc1cc(C(C)(C)C)c(OCCC(O)C(O)CCO)c(C(C)(C)C)c1 (stereo not given) | 75 to 77 °C |
| CON=CNC(=O)c1ccc(C2=NOC(c3cc(Cl)cc(Cl)c3)(C(F)(F)F)C2)cc1C (stereo not given) | 167 to 169 °C |
| COc1cc2c(c(OC)c1OC)-c1ccc(O)cc1[C@@H](NC(C)=O)CC2 | 157 °C |
| CC(C)(C)c1csc(NC(=O)c2ccn3c(=O)c(/C=C/C(=O)O)c(N4CCCC(CC(=O)NCCO)C4)nc3c2)n1 (stereo not given) | 167 to 175 °C |
| C=CC(c1ccc(F)cc1)c1c(C)c(NC=O)c(C)c(C)c1O (stereo not given) | 168 to 170 °C |
| N#CCc1nc(C(=O)c2ccc(F)cc2)no1 | 78 to 80 °C |
| OCC(O)(C(F)(F)F)C(F)(F)F | 47 °C |
| Cc1cc(Nc2ccnc(Nc3ccc(S(=O)(=O)N(C)C4CCN(Cc5cccn5C)CC4)cc3)n2)ccc1F | 159 to 160 °C |
| O=C(C1CCN(c2ccncc2)CC1)N1CCN(S(=O)(=O)c2ccc(-c3ccccn3)cc2)CC1 | 224 to 226 °C |
| COc1ccnc(C(C)S(=O)c2nc3cc(OC(F)(F)C(F)F)ccc3[nH]2)c1 (stereo not given) | 156 to 157 °C |
| O=[N+]([O-])c1cccc(CN2CCOCC2)c1 | 48 to 50 °C |
| Cn1cc(S(C)=O)c(=O)c2ccsc21 (stereo not given) | 150 to 152 °C |
| CC1=C(C(=O)c2ccc3c(c2)CCN(C(N)=O)C3)C(C)(C)CC1 | 40.1 to 41.4 °C |
| CCCCOc1c(CNC(=O)OC(C)(C)C)n(CC(C)(C)C)c(=O)c2ccc(CO)cc12 | 92 to 93 °C |

| SMILES | melting point |
| --- | --- |
| O=C1NCCNCCNCCNC(=O)c2cccc1n2 | 224 to 227 °C |
| CCCc1cc(-c2nc3c(s2)CCCO3)ccc1O | 152 to 154 °C |
| CC(=O)OC1C=C(C)C(=O)CC(C)(C)C1OC(=O)C=Cc1ccccc1 (stereo not given) | 64 to 65 °C |
| C(=C(c1ccccc1)c1ccccc1)c1ccc2c(c1)Sc1cc(C=C(c3ccccc3)c3ccccc3)ccc1N2c1ccccc1 | 232 to 237 °C |
| C=CCNc1nc(N)nc2c1ncn2C1CC(F)C(CO)O1 (stereo not given) | 128 to 129 °C |
| Cc1oc(C2=NOC(c3cc(Cl)cc(Cl)c3)(C(F)(F)F)C2)cc1C(=O)NCC(=O)NCC(F)(F)F (stereo not given) | 172 to 174 °C |
| CN(C)c1nc(NCc2ccc(NC(=O)c3ccc(F)cc3)cc2)c2ccc(-c3ccccc3C=O)cc2n1 | 128 °C |
| CNC(=O)[C@@H]1C[C@@H](OC)CN1S(=O)(=O)c1ccc(Cl)c(COc2cccc3c2NC(C)(C)C=C3n2cncn2)c1Cl | 73 °C |
| N#Cc1ccc(N2C(=N)C3(CCSCC3)NC2=O)cc1C(F)(F)F | 226 to 227 °C |
| CSc1cnn2c(Nc3ccc(F)c(Cl)c3)cc(Cl)nc12 | 156 to 158 °C |
| O=c1cc(-c2ccncc2)nc(-c2cccnc2)[nH]1 | > 300 °C |
| CCC(=Nc1ccc2c(c1)C(=O)c1ccc(N=C(CC)N3CCOCC3)cc1C2=O)N1CCOCC1 | 220 to 223 °C |
| CCc1nn(CCCO)c(CC)c1Cc1cc(Cl)cc(Cl)c1 | 56 to 59 °C |
| Cn1cc(C(N)=O)c(Cl)n1 | 164 to 166 °C |
| COC(=O)c1ccc2c(c1)CN(c1c(F)cc3c(=O)c(C(=O)O)cn(-c4ccc(F)cc4F)c3c1F)C2 | 248 to 251 °C |
| NC(=O)c1ccc2c(c1)CCCN2CCN1CC=C(c2c[nH]c3cc(F)ccc23)CC1 | 130 to 133 °C |
| CCN1CCCOc2ccc(Nc3ncc(Cl)c(Nc4ccsc4C(=O)NC)n3)cc21 | 153 to 155 °C |
| CC1COc2c(ccc(F)c2F)N1C(=O)C=NO (stereo not given) | 188 to 190 °C |
| CS(=O)(=O)c1ccc(Cl)cc1Cl | 71 °C |
| CN(C)C1(c2ccccc2)CCC(CNC(=O)CCCCCc2c[nH]c3ccc(F)cc23)CC1 (stereo not given) | 52 to 54 °C |

| SMILES | melting point |
| --- | --- |
| COOc1ccc(S(=O)(=O)c2cnc(C)nc2Cc2c(C)cc(C)cc2C)cc1 | 150 to 152 °C |
| CCOC(=O)C(CC(=O)c1cccc(F)c1)(NC(C)=O)C(=O)OCC | 121 to 123 °C |
| OCC1OC(n2cnc3c(NCc4cccc(I)c4)ncnc32)C(O)C1O (stereo not given) | 172 °C |
| O=C1C[C@H](O)[C@H](CC2CCCCC2)N1 | 141 to 143 °C |
| CCC1CC2C3CCC4=CC(=O)CCC4=C3CCC2(C)C1O (stereo not given) | 124 to 126 °C |
| Nc1nc2c(s1)CCN(CC=Cc1ccsc1)CC2 | 128 to 132 °C |
| CC1=NN(C(=O)NS(=O)(=O)N(C)S(=O)(=O)N(C)C)C(c2cccs2)C1 (stereo not given) | 112 to 113 °C |
| CC(C)(C)OC(=O)N[C@@H](Cc1cscn1)C(=O)O | 115 °C |
| CCOc1c(C)c(N2CCN(c3ccc(OC)c(C)c3)CC2)c(C)c2c1OC(C)C2 (stereo not given) | 80 to 83 °C |
| BrCCOc1cccc2c1SCCC2 | 62 °C |
| O=CNC1=NN(c2ccccc2)CC1 | 140 to 141 °C |
| Nc1ncnc2c1ncn2CC/C=C/P(=O)(O)O | 263 to 266 °C |
| CCOc1nn(-c2cc(C(F)(F)F)ccn2)cc1CCCO | 73 to 74 °C |
| CC1(C(=O)C(C(O)C(Cl)(Cl)CCl)n2cncn2)CC1 (stereo not given) | 182 to 186 °C |
| CC(C)(C)C1=CC(=CC#Cc2ccc(C(=O)O)c(O)c2)C=C(C(C)(C)C)C1=O | 203 °C |
| C[C@H](c1ccncn1)[C@@](O)(CO)c1ccc(F)cc1F | 148 to 150 °C |
| CCn1cc(O)c(=O)cc1CO | 143 to 145 °C |
| CCOC(=O)CC(C)(C)NCC(O)c1ccc(O)c2[nH]c(C(=O)OCC)cc12 (stereo not given) | 175 to 178 °C |
| CCCCCCCCCCCCCCCCCC(=O)CO | 78 to 80 °C |

Other lines, results leading:

| melting point | SMILES |
| --- | --- |
| 107 to 108 °C | O=c1c2ccccc2ncn1C1CCN(CCCc2ccccc2)CC1 |
| 130 to 133 °C | CCCCC1CCc2c(OCc3ccc4ccccc4n3)cccc2C1O (stereo not given) |
| 77 to 80 °C | CN(C)CCCNC(=O)c1ccc(-c2nnc(CSCCCOc3ccccc3)o2)cc1 |
| 177 °C | O=C(O)c1ccccc1Oc1ccc(C(F)(F)F)cc1NS(=O)(=O)c1ccccc1 |
| 181 to 183 °C | Cn1nc2ccccc2c1S(N)(=O)=O |
| 114 to 115 °C | CSCC(C)(C)NC(=O)c1c(I)cccc1[N+](=O)[O-] |
| 119 to 121 °C | CCOc1ccc(S(=O)c2ccccc2)cc1[N+](=O)[O-] (stereo not given) |
| 160 °C | CCOC(=O)COc1cc2c(c(Cl)c1Cl)C(=O)C(c1ccc(Cl)cc1)C2 (stereo not given) |
| 113 to 116 °C | CCCNC(=S)NCCCCn1c(-c2ccccc2)nc2c(N)nc3ccccc3c21 |
| 69 to 71 °C | COc1cc([N+](=O)[O-])ccc1F |
| 164 to 167 °C | O=C1C2CCCC2=Nc2ccccc2N1Cc1ccc2ccccc2c1 (stereo not given) |
| 218 °C | Cc1c(-c2ccccc2)oc(C(=O)O)cc1=O |
| 185 °C | O=C1c2ccc(Cl)cc2CCc2c(O)cccc21 |
| 201 to 203 °C | COc1ccc(CNc2nc(OCc3ccccn3)ncc2C(=O)O)cc1Cl |
| 130 °C | Cc1nc2ccnn2c2c1CCN2Cc1ccccc1 |
| 113 to 116 °C | COc1cc(N)c(Cl)cc1C(=O)NCC1CCN(CCCCCC(=O)c2ccc3ccccc3c2)CC1 |
| 132 to 135 °C | Nc1ccc(Oc2ccc([N+](=O)[O-])cc2)cn1 |
| 174 to 175 °C | CCOC(=O)C(=O)CC(=O)c1cn(Cc2cccc(F)c2)c2ccccc2c1=O |
| 143 to 146 °C | CC(=O)OCCC1CCc2cccc3c(C4=C(c5cn(C)c6ccccc56)C(=O)OC4=O)cn1c23 (stereo not given) |
| 73 to 74.5 °C | Cc1c([N+](=O)[O-])ccc(OCc2ccccc2)c1Cl |
| 65 to 66 °C | CCSc1ccc2cccc(CCNC(C)=O)c2c1 |

| melting point | SMILES |
| --- | --- |
| 249 to 250 °C | CC(=O)c1c(-c2ccc(S(C)=O)cc2)[nH]c(-c2ccncc2)c1C (stereo not given) |
| 158 to 159 °C | CCOC(=O)COc1cccc(C(N)=O)c1 |
| 316 to 318 °C | O=c1c2ccc(Cl)cc2[nH]c2c(O)nn(-c3ccc(O)cc3)c(=O)c12 |
| 189 to 191 °C | Cc1nsc2cc(N)c([N+](=O)[O-])cc12 |
| 101 to 105 °C | CN(C)[C@H]1CCN(C(=O)c2ccc(Cc3cn(C)c4ccccc34)cc2)C1 |
| 191 to 192 °C | O=C(O)CC1CCCN(C(=O)c2ccc(N3CCCC3)cc2Cl)c2ccccc21 (stereo not given) |
| 152 to 168 °C | COC(=O)c1cc2c(N3CCN(CCC(C(=O)N4CCCCCC4)c4ccccc4)CC3)cccc2[nH]1 (stereo not given) |
| 95 to 98 °C | COc1cc(NC(=O)N(CCCCCC(=O)O)c2ccccc2)c(O)c(C(C)(C)C)c1 |
| 158 °C | CCOC(=O)c1cnc2c(OC)nccc2c1Nc1ccccc1C |
| 96 to 98 °C | Cc1cc(C(C)(C)C)c(O)cc1[N+](=O)[O-] |
| 256 to 257 °C | COc1cc2ncnc(Nc3cccc(O)c3)c2cc1OC |
| 105 to 106 °C | O=Cc1c(C#Cc2ccccc2)sc2ccccc12 |
| 214 °C | COC(=O)c1cc(C(=O)c2c(C)c(OC)c3c(OCc4ccccc4)cccn23)ccc1NC(=O)C(F)(F)F |
| 125 to 127 °C | CN(C)n1c(NN)nc2ccccc2c1=O |
| 194 °C | c1ccc(-c2nnc3c4c(c(OCc5ccccn5)nn23)CCCC4)cc1 |
| 95 to 97 °C | CCOC(=O)N1CCC2=C(C1)SCC2(NC(=O)CN)C(=O)c1ccccc1Cl (stereo not given) |
| 45 °C | Fc1cccc(Cl)c1-c1c(Cl)cc(-c2ccccn2)nc1Cl |
| 187 to 188 °C | COc1cc(COc2nn(-c3ccccc3)cc2/C=C/C(N)=O)ccc1OCc1nc(-c2ccco2)oc1C |
| 159 to 163 °C | Cc1ccccc1S(=O)(=O)NC(=O)c1ccc2c(c1)CCN2Cc1cccc([N+](=O)[O-])c1 |
| 273 °C | COc1ccccc1-c1nc(N)ncc1-c1ccc(=O)[nH]n1 |
